Experiments:
[1] = test system: IGROV-1; test: inhibition of the growth of ovarian cancer(IGROVI) cell line; format: functional; conditions: Homo sapiens
[2] = test system: NCI-H460; test: inhibition of the growth of non-small-cell lung cancer (NCI-H460) cell line; format: functional; conditions: Homo sapiens
[3] = test system: DU-145; test: inhibition of the growth of prostate cancer(DU-145) cell line; format: functional; conditions: Homo sapiens
[4] = test system: 786-0; test: Inhibition of the growth of renal cancer(786-0) cell line at 0.01 uM; format: functional; conditions: Homo sapiens
[5] = test system: UO-31; test: inhibition of the growth of renal cancer(UO-31) cell line; format: functional; conditions: Homo sapiens
[6] = test system: NCI-H522; test: Inhibition of the growth of non-small-cell lung cancer (NCI-H522) cell line; format: functional; conditions: Homo sapiens
[7] = test system: DU-145; test: Inhibition of the growth of prostate cancer(DU-145) cell line at 0.01 uM; format: functional; conditions: Homo sapiens
[8] = test system: 786-0; test: inhibition of the growth of renal cancer(786-0) cell line; format: functional; conditions: Homo sapiens
[9] = test system: HCT-15; test: Inhibition of the growth of colon cancer(HCT-15) cell line at 0.01 uM; format: functional; conditions: Homo sapiens
[10] = test system: SNB-19; test: Inhibition of the growth of CNS cancer(SNB-19) cell line at 0.01 uM; format: functional; conditions: Homo sapiens
[11] = test system: NCI-H460; test: Inhibition of the growth of non-small-cell lung cancer (NCI-H460) cell line at 0.01 uM; format: functional; conditions: Homo sapiens
[12] = test system: CAKI-1; test: inhibition of the growth of renal cancer(CAKI-1) cell line; format: functional; conditions: Homo sapiens
[13] = test system: SR; test: Inhibition of the growth of leukemia(SR) cell line at 0.01 uM; format: functional; conditions: Homo sapiens
[14] = test system: SK-MEL-5; test: inhibition of the growth of melanoma cancer (SK-MEL-5) cell line; format: functional; conditions: Homo sapiens
[15] = test system: NCI-H322M; test: Inhibition of the growth of non-small-cell lung cancer (NCI-H322M) cell line at 0.01 uM; format: functional; conditions: Homo sapiens
[16] = test system: SF-268; test: Inhibition of the growth of CNS cancer(SF-268) cell line at 0.01 uM; format: functional; conditions: Homo sapiens
[17] = test system: MCF7; test: inhibition of the growth of breast cancer (MCF-7) cell line; format: functional; conditions: Homo sapiens
[18] = target: T1, Dihydrofolate reductase (Rattus norvegicus, UniProt Q920D2)
T1 sequence (Q920D2 whole entry): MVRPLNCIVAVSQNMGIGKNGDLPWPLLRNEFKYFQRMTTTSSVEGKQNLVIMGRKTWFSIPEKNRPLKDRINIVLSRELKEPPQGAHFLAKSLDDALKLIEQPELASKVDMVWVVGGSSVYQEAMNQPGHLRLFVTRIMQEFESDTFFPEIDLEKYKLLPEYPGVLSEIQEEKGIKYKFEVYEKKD
Description: Inhibitory activity against dihydrofolate reductase (DHFR) from rat liver

[19] = test system: NCI/ADR-RES; test: Inhibition of the growth of breast cancer (MCF7/ADR-RES) cell line at 0.01 uM; format: functional; conditions: Homo sapiens
[20] = test system: A549; test: Inhibition of the growth of non-small-cell lung cancer (A549/ATCC) cell line at 0.01 uM; format: functional; conditions: Homo sapiens
[21] = test system: SK-MEL-5; test: Inhibition of the growth of melanoma cancer (SK-MEL-5) cell line at 0.01 uM; format: functional; conditions: Homo sapiens
[22] = test system: SNB-19; test: inhibition of the growth of CNS cancer(SNB-19) cell line; format: functional; conditions: Homo sapiens
[23] = test system: SF-539; test: Inhibition of the growth of CNS cancer(SF-539) cell line at 0.01 uM; format: functional; conditions: Homo sapiens
[24] = test system: HCT-116; test: Inhibition of the growth of colon cancer(HCT116) cell line at 0.01 uM; format: functional; conditions: Homo sapiens
[25] = test system: MDA-MB-435; test: Inhibition of the growth of breast cancer (MDA-MB-435) cell line at 0.01 uM; format: functional; conditions: Homo sapiens
[26] = test system: M14; test: Inhibition of the growth of melanoma cancer (M14) cell line at 0.01 uM; format: functional; conditions: Homo sapiens
[27] = test system: KM12; test: Inhibition of the growth of colon cancer(KM-12) cell line at 0.01 uM; format: functional; conditions: Homo sapiens
[28] = test system: MCF7; test: Inhibition of the growth of breast cancer (MCF-7) cell line at 0.01 uM; format: functional; conditions: Homo sapiens
[29] = test system: HCT-15; test: inhibition of the growth of colon cancer(HCT-15) cell line; format: functional; conditions: Homo sapiens
[30] = test system: RPMI-8226; test: Inhibition of the growth of leukemia (RPMI-8226) cell line AT 0.01 uM; format: functional; conditions: Homo sapiens
[31] = test system: OVCAR-8; test: inhibition of the growth of ovarian cancer(OVCAR-8) cell line; format: functional; conditions: Homo sapiens
[32] = test system: SF-539; test: inhibition of the growth of CNS cancer(SF-539) cell line; format: functional; conditions: Homo sapiens
[33] = test system: SR; test: Inhibition of the growth of leukemia(SR) cell line; format: functional; conditions: Homo sapiens
[34] = test system: OVCAR-8; test: Inhibition of the growth of ovarian cancer(OVCAR-8) cell line at 0.01 uM; format: functional; conditions: Homo sapiens
[35] = test system: SF-295; test: inhibition of the growth of CNS cancer(SF-295) cell line; format: functional; conditions: Homo sapiens
[36] = test system: A549; test: Inhibition of the growth of non-small-cell lung cancer (A549/ATCC) cell line; format: functional; conditions: Homo sapiens
[37] = test system: HCT-116; test: Inhibition of the growth of colon cancer(HCT116) cell line; format: functional; conditions: Homo sapiens
[38] = test system: KM12; test: inhibition of the growth of colon cancer(KM-12) cell line; format: functional; conditions: Homo sapiens
[39] = test system: NCI-H23; test: inhibition of the growth of non-small-cell lung cancer (NCI-H23) cell line at 0.01 uM; format: functional; conditions: Homo sapiens
[40] = test system: SF-268; test: inhibition of the growth of CNS cancer(SF-268) cell line; format: functional; conditions: Homo sapiens
[41] = test system: MOLT-4; test: Inhibition of the growth of leukemia (MOLT-4) cell line; format: functional; conditions: Homo sapiens
[42] = target: T2, Dihydrofolate reductase (Pneumocystis carinii, UniProt P16184)
T2 sequence (P16184 whole entry): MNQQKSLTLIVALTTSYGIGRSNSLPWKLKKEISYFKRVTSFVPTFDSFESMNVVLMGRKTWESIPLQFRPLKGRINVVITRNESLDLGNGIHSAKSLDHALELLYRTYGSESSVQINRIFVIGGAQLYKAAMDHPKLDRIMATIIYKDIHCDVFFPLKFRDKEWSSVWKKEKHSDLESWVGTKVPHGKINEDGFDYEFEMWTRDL
Description: Inhibitory activity against dihydrofolate reductase (DHFR) from Pneumocystis carinii

[43] = target: T3, Bifunctional dihydrofolate reductase-thymidylate synthase (Toxoplasma gondii, UniProt Q07422)
T3 sequence (Q07422 whole entry): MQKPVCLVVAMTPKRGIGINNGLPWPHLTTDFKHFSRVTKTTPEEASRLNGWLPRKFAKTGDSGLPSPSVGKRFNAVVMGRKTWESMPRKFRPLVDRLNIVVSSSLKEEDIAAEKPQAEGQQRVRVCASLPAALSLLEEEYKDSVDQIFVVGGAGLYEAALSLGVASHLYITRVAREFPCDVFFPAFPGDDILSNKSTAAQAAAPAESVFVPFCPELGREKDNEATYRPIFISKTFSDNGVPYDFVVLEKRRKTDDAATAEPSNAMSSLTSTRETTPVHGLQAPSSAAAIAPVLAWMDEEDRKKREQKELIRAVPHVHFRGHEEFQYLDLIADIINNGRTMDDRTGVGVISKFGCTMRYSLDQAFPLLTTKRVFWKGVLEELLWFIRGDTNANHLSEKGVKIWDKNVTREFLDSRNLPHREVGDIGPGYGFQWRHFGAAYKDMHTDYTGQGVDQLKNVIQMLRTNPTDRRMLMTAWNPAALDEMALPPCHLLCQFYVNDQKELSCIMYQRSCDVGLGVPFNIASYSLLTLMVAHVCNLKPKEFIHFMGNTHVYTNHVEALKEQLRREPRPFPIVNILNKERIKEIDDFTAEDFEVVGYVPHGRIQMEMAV
Description: Inhibitory activity against dihydrofolate reductase (DHFR) from Toxoplasma gondii

[44] = test system: MDA-N; test: Inhibition of the growth of breast cancer(MDA-N) cell line at 0.01 uM; format: functional; conditions: Homo sapiens
[45] = test system: MDA-MB-435; test: Inhibition of the growth of breast cancer (MDA-MB-435) cell line; format: functional; conditions: Homo sapiens
[46] = test system: MDA-N; test: inhibition of the growth of breast cancer(MDA-N) cell line; format: functional; conditions: Homo sapiens
[47] = test system: M14; test: inhibition of the growth of melanoma cancer (M14) cell line; format: functional; conditions: Homo sapiens
[48] = test system: NCI-H522; test: Inhibition of the growth of non-small-cell lung cancer (NCI-H522) cell line at 0.01 uM; format: functional; conditions: Homo sapiens
[49] = test system: NCI-H23; test: inhibition of the growth of non-small-cell lung cancer (NCI-H23) cell line; format: functional; conditions: Homo sapiens
[50] = test system: SF-295; test: Inhibition of the growth of CNS cancer(SF-295) cell line at 0.01 uM; format: functional; conditions: Homo sapiens
[51] = test system: RPMI-8226; test: Inhibition of the growth of leukemia (RPMI-8226) cell line; format: functional; conditions: Homo sapiens
[52] = test system: UO-31; test: Inhibition of the growth of renal cancer(UO-31) cell line at 0.01 uM; format: functional; conditions: Homo sapiens
[53] = test system: CAKI-1; test: Inhibition of the growth of renal cancer(CAKI-1) cell line at 0.01 uM; format: functional; conditions: Homo sapiens
[54] = test system: NCI-H322M; test: inhibition of the growth of non-small-cell lung cancer (NCI-H322M) cell line; format: functional; conditions: Homo sapiens
[55] = test system: MOLT-4; test: Inhibition of the growth of leukemia (MOLT-4) cell line at 0.01 uM; format: functional; conditions: Homo sapiens
[56] = test system: IGROV-1; test: Inhibition of the growth of ovarian cancer(IGROVI) cell line at 0.01 uM; format: functional; conditions: Homo sapiens
[57] = test system: NCI/ADR-RES; test: inhibition of the growth of breast cancer (MCF7/ADR-RES) cell line; format: functional; conditions: Homo sapiens

Which results are given for `COc1ccc(N(C)c2ccc3nc(N)nc(N)c3n2)cc1OC`?
GI50 [1]: < 10 nM; GI50 [2]: < 10 nM; GI50 [3]: < 10 nM; inhibition at 0.01 µM [4]: 53%; GI50 [5]: < 10 nM; GI50 [6]: < 10 nM; inhibition at 0.01 µM [7]: 57%; GI50 [8]: < 10 nM; inhibition at 0.01 µM [9]: 75%; inhibition at 0.01 µM [10]: 90%; inhibition at 0.01 µM [11]: 83%; GI50 [12]: < 10 nM; inhibition at 0.01 µM [13]: 69%; GI50 [14]: < 10 nM; inhibition at 0.01 µM [15]: 53%; inhibition at 0.01 µM [16]: 52%; GI50 [17]: < 10 nM; IC50 [18]: 0.4 nM; inhibition at 0.01 µM [19]: 84%; inhibition at 0.01 µM [20]: 70%; inhibition at 0.01 µM [21]: 83%; GI50 [22]: < 10 nM; inhibition at 0.01 µM [23]: 67%; inhibition at 0.01 µM [24]: 83%; inhibition at 0.01 µM [25]: 72%; inhibition at 0.01 µM [26]: 59%; inhibition at 0.01 µM [27]: 56%; inhibition at 0.01 µM [28]: 60%; GI50 [29]: < 10 nM; inhibition at 0.01 µM [30]: 69%; GI50 [31]: < 10 nM; GI50 [32]: < 10 nM; GI50 [33]: < 10 nM; inhibition at 0.01 µM [34]: 76%; GI50 [35]: < 10 nM; GI50 [36]: < 10 nM; GI50 [37]: < 10 nM; GI50 [38]: < 10 nM; inhibition at 0.01 µM [39]: 82%; GI50 [40]: < 10 nM; GI50 [41]: < 10 nM; IC50 [42]: 2.3 nM; IC50 [43]: 0.88 nM; inhibition at 0.01 µM [44]: 63%; GI50 [45]: < 10 nM; GI50 [46]: < 10 nM; GI50 [47]: < 10 nM; inhibition at 0.01 µM [48]: 59%; GI50 [49]: < 10 nM; inhibition at 0.01 µM [50]: 68%; GI50 [51]: < 10 nM; inhibition at 0.01 µM [52]: 100%; inhibition at 0.01 µM [53]: 81%; GI50 [54]: < 10 nM; inhibition at 0.01 µM [55]: 57%; inhibition at 0.01 µM [56]: 65%; GI50 [57]: < 10 nM

From ChEMBL document CHEMBL1131172 (J Med Chem, 1998)
